Results published in article PMC12365235, “Molecular mechanisms of thiazide-like diuretics-mediated inhibition of the human Na-Cl cotransporter” (Nature Communications, 2025).
Changes are numbered by the printed parent chain. “Also recorded” adds a separate entry of the source.

Assays:
hNCC(T352I) = target: T1, hNCC(T352I) (Homo sapiens, UniProt P55017, T352I); experiment: 125I- uptake assay, hNCC(T352I) variant; type: cell-based; conditions: 100 μM polythiazide
T1 construct: expressed in transfected cells
T1 sequence (P55017 1-1021 T352I): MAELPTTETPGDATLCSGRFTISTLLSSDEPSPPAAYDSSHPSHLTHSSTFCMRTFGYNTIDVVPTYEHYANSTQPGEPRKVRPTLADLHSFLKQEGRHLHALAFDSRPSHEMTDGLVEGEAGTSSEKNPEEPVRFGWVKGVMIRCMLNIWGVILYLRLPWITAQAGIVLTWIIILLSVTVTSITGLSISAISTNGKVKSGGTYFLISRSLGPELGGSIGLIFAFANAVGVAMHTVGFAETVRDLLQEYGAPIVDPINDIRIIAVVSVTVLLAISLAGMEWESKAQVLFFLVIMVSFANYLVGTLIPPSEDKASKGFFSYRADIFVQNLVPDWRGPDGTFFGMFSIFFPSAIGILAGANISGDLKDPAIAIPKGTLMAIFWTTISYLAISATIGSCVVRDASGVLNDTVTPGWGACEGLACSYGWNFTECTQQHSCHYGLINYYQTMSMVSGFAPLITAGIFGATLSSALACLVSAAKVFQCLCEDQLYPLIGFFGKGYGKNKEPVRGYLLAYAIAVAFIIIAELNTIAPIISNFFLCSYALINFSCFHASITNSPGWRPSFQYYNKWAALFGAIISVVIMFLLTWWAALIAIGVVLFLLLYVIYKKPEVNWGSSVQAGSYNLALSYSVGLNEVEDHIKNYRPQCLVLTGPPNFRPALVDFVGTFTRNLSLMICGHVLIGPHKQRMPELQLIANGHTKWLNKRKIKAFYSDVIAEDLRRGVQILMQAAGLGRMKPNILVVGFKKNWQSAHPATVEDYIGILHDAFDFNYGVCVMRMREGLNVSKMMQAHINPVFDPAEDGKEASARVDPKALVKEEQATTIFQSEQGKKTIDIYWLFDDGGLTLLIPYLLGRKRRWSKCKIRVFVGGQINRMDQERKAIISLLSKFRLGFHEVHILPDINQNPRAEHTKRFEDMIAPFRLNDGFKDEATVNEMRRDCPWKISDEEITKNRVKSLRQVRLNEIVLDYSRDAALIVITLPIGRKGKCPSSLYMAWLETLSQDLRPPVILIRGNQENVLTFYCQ
Experimental: (§1) HEK293S cell lines, cultured in 293 Freestyle medium (Life Technologies; plus 10% fetal bovine serum), stably expressing hNCC and its variants were generated following published protocols. Cells were transfected using Lipofectamine 3000 (Invitrogen) with a pSBbi-RP-based plasmid containing hNCC or its variants and the SB100X vector. Puromycin (2 μg/mL; Gemini Bio-Products) was used for selection of stable cell lines.
To prepare for the uptake experiment, cells were plated at 0.5 × 10^6 cells/well in 24-well plates one day in advance. To activate NCC, cells were treated with a chloride-free hypotonic solution composed of 67.5 mM sodium-, 2.5 mM potassium-, 0.25 mM magnesium-, and 0.25 mM calcium-gluconate, as well as 7.5 mM HEPES pH 7.4 (buffered using Tris) at 37 °C for 10 min[72]. After the activation step, the experiments were carried out at room temperature. Ten minutes before the start of ^125I^− uptake, 70 μM Bumetanide (Thermo Scientific Chemicals) and 100 μM 4,4′-diisothiocyanatostilbene-2,2′-disulfonic acid (DIDS; Sigma) were added to suppress background iodide uptake activity. Indicated thiazide diuretics were also added to the indicated concentrations 10 min before the start of ^125I^− uptake. […] Cells lysed using 1% sodium dodecyl sulfate (SDS) were analyzed by scintillation counting.

hNCC(C472F) = target: T2, hNCC(C472F) (Homo sapiens, UniProt P55017, C472F); experiment: 125I- uptake assay, hNCC(C472F) variant; type: cell-based
T2 construct: expressed in transfected cells
T2 sequence (P55017 1-1021 C472F): T1 sequence (P55017 1-1021 T352I) with I352T, C472F
Experimental: as §1
To prepare for the uptake experiment, cells were plated at 0.5 × 10^6 cells/well in 24-well plates one day in advance. To activate NCC, cells were treated with a chloride-free hypotonic solution composed of 67.5 mM sodium-, 2.5 mM potassium-, 0.25 mM magnesium-, and 0.25 mM calcium-gluconate, as well as 7.5 mM HEPES pH 7.4 (buffered using Tris) at 37 °C for 10 min[72]. After the activation step, the experiments were carried out at room temperature. Ten minutes before the start of ^125I^− uptake, 70 μM Bumetanide (Thermo Scientific Chemicals) and 100 μM 4,4′-diisothiocyanatostilbene-2,2′-disulfonic acid (DIDS; Sigma) were added to suppress background iodide uptake activity. Indicated thiazide diuretics were also added to the indicated concentrations 10 min before the start of ^125I^− uptake. The original buffer was switched to an uptake buffer composed of 135 mM Na-gluconate, 5 mM K-gluconate, 1 mM Mg-gluconate, 1 mM Ca-gluconate, 70 μM bumetanide, 100 μM DIDS, 1 mM NaI, 0.25 μCi/ml Na^125I (American Radiolabeled Chemicals, Inc.), and 15 mM HEPES pH 7.4 (buffered using Tris), in the presence or absence of thiazide diuretics to initiate ^125I^− uptake. The ^125I^− uptake process lasted 1 h and was stopped by two rapid washes using ice-cold 110 mM MgCl2. Cells lysed using 1% sodium dodecyl sulfate (SDS) were analyzed by scintillation counting.

With `CN1C(CSCC(F)(F)F)Nc2cc(Cl)c(S(N)(=O)=O)cc2S1(=O)=O` (stereo not shown) [polythiazide] as the compound, how does the “inhibition of transport activity” value (hNCC(T352I)) read?
Its value is “fully inhibited; also recorded: completely inhibited”.

And the inhibition at 100 µM (hNCC(C472F); 100 μM polythiazide, C472F, read-out: inhibition of transport activity)?
The inhibition at 100 µM was roughly 50%.

What about the “decrease in potency relative to hNCC(WT)” value (hNCC(C472F); C472F substitution) of the same compound?
The value was “approximately 200,000 fold”.

What about the IC50 (hNCC(C472F); C472F substitution, estimated from ~50% inhibition at 100 μM) of the same compound?
Its IC50 is roughly 100 µM.
